The values below come from article PMC11313944, “Ethyl Acetate Fraction from Eleutherococcus divaricatus Root Extract as a Promising Source of Compounds with Anti-Hyaluronidase, Anti-Tyrosinase, and Antioxidant Activity but Not Anti-Melanoma Activity” (Molecules, 2024).

The nature of assay [1]: Iron (II) ion chelation assay (ferrozine). Conditions: results for 1 mg/mL.
Experimental: The ion chelation assay was conducted using the method proposed by Li et al. [54]. Initially, 100 μL of extract at a concentration of 1.0 mg/mL was combined with methanol (150 μL, MeOH) and iron(II) chloride (5 μL, FeCl2) at a concentration of 2 mM. Subsequently, 5 μL of ferrozine was added at a concentration of 5 mM. Following a period of incubation, the absorbance was measured at a wavelength of 510 nm. The degree of chelation was then calculated using a specific equation, with ethylenediaminetetraacetic acid (EDTA) serving as a positive control. INHFe^2+=AC−AS/AC∗100%
AS—the absorbance for sample + ferrozine + FeCl2;
AC—the absorbance without sample + ferrozine + FeCl2.
For assay [2], the system named is MCF-7 human breast adenocarcinoma cell line. On the set-up: method as in PMID 25918798. The note with it: read-out: IC50 antiproliferative; cited from earlier work.

For the compound `O=C(O)CN(CCN(CC(=O)O)CC(=O)O)CC(=O)O` [EDTA, ethylenediaminetetraacetic acid], the “Ferrozine (iron(II) chelation)” value in assay [1] amounted to 98.9 ± 0.01%.
For `O=C1OCc2c1c(-c1ccc3c(c1)OCO3)c1cc3c(cc1c2O)OCO3` [taiwanin E], the IC50 in assay [2] is 1470 nM.
